Test results from patent US20250306032A1, “METHODS FOR IDENTIFYING REACTIVE FUNCTIONAL CYSTEINES IN NUCLEAR PROTEINS” (Talus Bioscience, Inc., priority 2022, published 2025).

Assays:
Format in all cases: cell-based
[1] = target: T1, CCCTC-binding factor (CTCF) (Homo sapiens, UniProt P49711); test: Reactive cysteine identification by ChESS fractionation and mass spectrometry in THP-1 cells; conditions: 12.5 μM, 4 hours, mass spectrometry
T1 construct: endogenous in cells; host or cells: THP-1
T1 sequence (P49711 1-727): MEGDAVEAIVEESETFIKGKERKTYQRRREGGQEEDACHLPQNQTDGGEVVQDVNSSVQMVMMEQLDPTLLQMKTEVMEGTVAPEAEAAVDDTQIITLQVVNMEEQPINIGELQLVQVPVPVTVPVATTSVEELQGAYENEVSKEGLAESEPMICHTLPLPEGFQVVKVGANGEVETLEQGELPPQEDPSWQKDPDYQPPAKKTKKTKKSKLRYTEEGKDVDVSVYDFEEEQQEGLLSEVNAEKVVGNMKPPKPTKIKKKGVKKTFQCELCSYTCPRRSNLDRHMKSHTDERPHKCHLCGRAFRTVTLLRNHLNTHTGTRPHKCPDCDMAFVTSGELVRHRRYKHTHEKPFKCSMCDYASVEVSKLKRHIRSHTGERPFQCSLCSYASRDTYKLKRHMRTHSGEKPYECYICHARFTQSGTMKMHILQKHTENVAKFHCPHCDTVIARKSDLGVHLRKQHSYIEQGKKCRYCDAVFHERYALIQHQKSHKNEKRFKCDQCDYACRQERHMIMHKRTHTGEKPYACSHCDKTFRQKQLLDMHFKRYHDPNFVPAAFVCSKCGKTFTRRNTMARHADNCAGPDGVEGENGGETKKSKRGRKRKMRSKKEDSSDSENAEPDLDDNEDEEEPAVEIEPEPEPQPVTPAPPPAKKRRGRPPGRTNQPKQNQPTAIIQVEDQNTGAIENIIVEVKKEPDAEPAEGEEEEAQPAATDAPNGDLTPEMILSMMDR
Protocol: (§1) Five million cells, from leukemia, myeloma, or other cancer cell cultures, were treated with 12.5 μM n-methyl iodoacetamide (NM-IAA) in triplicate for 4 hours. The cells were then washed with phosphate-buffered saline (PBS) and fractionated using chromatin enriching salt separation (ChESS). ChESS used four sequential buffer washes of increasing ionic strength to separate the cellular proteome into cytosolic-, nucleoplasm-, euchromatin-, and heterochromatin-enriched fractions, as outlined in FIG. 1. Each of the fractions was digested using trypsin and analyzed using a data-dependent acquisition (DDA) strategy on an Evosep One-ThermoFisher Exploris 480 orbitrap platform. The results were analyzed using the Comet search tool with the mass of the NM-IAA addition as a variable modification on cysteine residues, then filtered at a 1% false discovery rate with Peptide Prophet or mokapot. DDA results were quantified with FlashLFQ. Each sample was also acquired using a data independent acquisition (DIA) approach on the same mass spectrometer in order to accurately quantify the peptides and proteins in each sample. DIA samples were analyzed using EncyclopeDIA with a spectral library that was generated using the results from DDA analysis and Comet search results or using a predicted spectral library from Prosit.
THP-1 acute monocytic leukemia cells were grown to 95% viability. […]

[2] = target: T2, CTCF (Homo sapiens, UniProt P49711); test: Movement of transcription factor between ChESS fractions after NM-IAA treatment; conditions: ChESS fractionation after NM-IAA treatment
T2 construct: endogenous in cells; host or cells: THP-1
T2 sequence (P49711 1-727): T1 sequence (P49711 1-727)
Protocol: as §1, with “Prosit. […]” for “Prosit.”

[3] = target: T3, poly(ADP-ribose) polymerase-1 (PARP1) (Homo sapiens, UniProt P09874); test: Reactive cysteine identification with Biotin-IA in THP-1 cells (mass spectrum); conditions: 10 μM
T3 construct: endogenous in cells; host or cells: THP-1
Protocol: The mass shift associated with NM-IAA is 71.03 Dalton (Da). […] THP-1 cells were treated with 10 μM biotin polyethyleneoxide iodoacetamide (Biotin-IA). Biotin-IA reacted with a cysteine in the peptide SDAYYCTGDVTAWTK (SEQ ID NO: 2) from the poly(ADP-ribose) polymerase-1 (PARP1) protein.

T3 sequence (P09874 whole entry): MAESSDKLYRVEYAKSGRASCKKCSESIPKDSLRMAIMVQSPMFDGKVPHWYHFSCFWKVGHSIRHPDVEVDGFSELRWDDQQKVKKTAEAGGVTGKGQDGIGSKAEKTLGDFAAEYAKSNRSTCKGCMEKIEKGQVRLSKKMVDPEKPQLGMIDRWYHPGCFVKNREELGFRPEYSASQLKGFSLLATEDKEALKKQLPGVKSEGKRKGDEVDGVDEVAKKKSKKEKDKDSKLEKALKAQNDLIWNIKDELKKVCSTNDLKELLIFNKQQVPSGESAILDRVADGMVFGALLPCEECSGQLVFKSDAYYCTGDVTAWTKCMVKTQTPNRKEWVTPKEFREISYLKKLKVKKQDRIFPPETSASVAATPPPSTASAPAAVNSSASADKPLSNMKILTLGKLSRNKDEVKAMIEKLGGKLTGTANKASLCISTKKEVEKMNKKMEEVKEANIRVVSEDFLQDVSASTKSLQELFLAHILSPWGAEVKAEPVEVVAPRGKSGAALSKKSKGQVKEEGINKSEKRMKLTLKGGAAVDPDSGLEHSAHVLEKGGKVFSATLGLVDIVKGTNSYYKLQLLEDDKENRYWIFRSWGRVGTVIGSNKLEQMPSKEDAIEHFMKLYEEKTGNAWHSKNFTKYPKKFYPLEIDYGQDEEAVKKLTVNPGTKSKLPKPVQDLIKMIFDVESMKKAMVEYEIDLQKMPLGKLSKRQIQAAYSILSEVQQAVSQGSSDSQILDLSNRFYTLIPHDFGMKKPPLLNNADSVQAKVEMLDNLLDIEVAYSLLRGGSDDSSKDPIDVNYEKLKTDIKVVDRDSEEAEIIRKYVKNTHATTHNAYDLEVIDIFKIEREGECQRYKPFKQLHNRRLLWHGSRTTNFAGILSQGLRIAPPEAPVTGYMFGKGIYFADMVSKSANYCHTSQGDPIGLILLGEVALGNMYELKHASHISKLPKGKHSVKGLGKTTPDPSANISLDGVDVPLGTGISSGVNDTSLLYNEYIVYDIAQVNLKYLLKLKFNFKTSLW

modification of the cysteine in CTCF peptide YHDPNFVPAAFVCSK (SEQ ID NO: 1) [1] | Molecule | CTCF localisation in ChESS fractions after NM-IAA modification [2] | reaction with a cysteine in PARP1 peptide SDAYYCTGDVTAWTK (SEQ ID NO: 2) [3]
modified | CNC(=O)CI [NM-IAA, n-methyl iodoacetamide] | ejected from heterochromatin and observed in the nucleoplasm fraction | –
– | biotin polyethyleneoxide iodoacetamide [Biotin-IA] | – | reacted
